Earlier results in patent publication US9510613B2, “Panaxadiol-containing composition” (LION CORPORATION, priority 2011, dated 2016).

Conditions: commercial component, Table 3

Substance | HLB
Sucrose Palmitic Acid Ester | 16
Sucrose Myristic Acid Ester | 16
Glycerin Monostearate Citrate | 9.5
Sucrose Stearic Acid Ester | 16
Sucrose Lauric Acid Ester | 16
